{"source": "patent US12122760B2", "about": "“Compound, composition, and use thereof in preparation of drug” (CHANGSHA ZEDA MEDICAL TECH. CO., LTD, priority 2019, dated 2024)", "key": {"[1]": {"molecular_target": "T1, androgen receptor (AR) (Homo sapiens, UniProt P10275)", "T1 construct": "expressed in transfected cells; host or cells: 293T cells", "T1 sequence (P10275 1-920)": "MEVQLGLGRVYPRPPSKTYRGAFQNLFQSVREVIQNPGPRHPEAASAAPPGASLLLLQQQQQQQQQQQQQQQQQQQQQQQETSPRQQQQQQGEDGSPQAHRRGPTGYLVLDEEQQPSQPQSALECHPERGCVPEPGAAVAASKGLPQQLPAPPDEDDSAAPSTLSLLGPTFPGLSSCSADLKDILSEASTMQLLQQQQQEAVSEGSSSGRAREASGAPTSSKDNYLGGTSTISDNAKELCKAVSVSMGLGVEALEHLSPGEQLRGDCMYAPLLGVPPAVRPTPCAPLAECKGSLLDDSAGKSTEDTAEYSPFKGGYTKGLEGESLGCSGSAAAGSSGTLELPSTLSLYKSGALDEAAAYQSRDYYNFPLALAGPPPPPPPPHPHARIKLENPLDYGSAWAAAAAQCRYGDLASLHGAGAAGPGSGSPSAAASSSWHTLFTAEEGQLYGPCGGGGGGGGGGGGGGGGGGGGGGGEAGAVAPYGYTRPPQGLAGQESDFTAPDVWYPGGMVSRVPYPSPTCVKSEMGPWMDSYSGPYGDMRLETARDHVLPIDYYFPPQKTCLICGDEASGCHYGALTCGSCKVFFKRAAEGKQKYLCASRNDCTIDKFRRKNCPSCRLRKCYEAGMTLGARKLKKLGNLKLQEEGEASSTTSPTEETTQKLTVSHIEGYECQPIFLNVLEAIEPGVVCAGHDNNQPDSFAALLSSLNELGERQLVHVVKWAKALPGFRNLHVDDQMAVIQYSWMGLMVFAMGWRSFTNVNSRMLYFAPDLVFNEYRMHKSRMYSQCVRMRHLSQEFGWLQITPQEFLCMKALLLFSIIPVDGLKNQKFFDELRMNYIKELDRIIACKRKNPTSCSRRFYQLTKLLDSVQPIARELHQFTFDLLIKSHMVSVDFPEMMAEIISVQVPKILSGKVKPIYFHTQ", "assay": "Luciferase reporter gene experiment (MMTV-LUC + pSV-AR in 293T cells)", "assay_type": "cell-based", "details": "10 nM DHT, FIG. 2", "description": "293T cells are cultured in a 96-well plate. AR plasmids and luciferase genes with AR target promoters are co-transfected in the 293T cells. AR activates the target promoters to express luciferase, and the expression level of the luciferase is directly proportional to AR activation. Adding DHT to the cells can activate AR and express the luciferase, thus enhancing fluorescence signal detection. By detecting the fluorescent signal, it can be examined whether an added drug has AR antagonist activity.\nThe luciferase reporter gene plasmid MMTV-LUC containing the androgen receptor (AR) target promoters and the plasmid pSV-AR expressing the androgen receptor (AR) are constructed. The 293T cells are inoculated in a 96-well plate, wherein each well containing 1×10^4 cells. The cells are incubated overnight to stick to the wall. On the second day, Lipofectamine® 3000 (Life technologies, USA) is used to transfect the plasmid into the cells. Each well is added with 180 ng of MMTV-LUC plasmid and 20 ng of pSV-AR plasmid. On the third day, each well is added with 10 nM of the DHT and the drugs of different concentrations of 1 nM, 10 nM, 100 nM, 1 uM, 10 uM, 25 uM, 50 uM respectively. The control is 10 nM of the DHT. On the fifth day, a luciferase reporter gene detection kit (Biyuntian company, China) is used to process the cells. 100 uL of cell lysate is added to the 96-well plate, and lyse for 20 min. Then centrifuging is performed at 4 degrees and 10000 g for 3 min. 50 uL of supernatant is taken and 100 uL of a luciferase detection reagent is added. After mixing, chemiluminescence is immediately detected on the multi-functional microplate reader. Graphpad Prism software is used to draw a curve by using the drug concentration as an abscissa and using drug fluorescence value/positive control fluorescence value as an ordinate. Herein MDV3100 is the positive control."}, "[2]": {"test_system": "Histone deacetylase (HDAC)", "assay": "HDAC inhibitory activity: Kac-tubulin Western Blot in VCaP cells", "assay_type": "cell-based", "details": "10 uM drug, 24 h, FIG. 4", "description": "(§1) The VCap cells are cultured in the 6-well plate. After treating the VCap cells with the drugs for 24 hours, acetylation levels of the tubulin in the cytoplasm and the H3 protein in the nucleus are examined by the western blot. An experiment process is as follows:\nThe VCaP cells are spread in the 6-well plate. 5×10^5 cells are inoculated per well, and incubated overnight to make the cells stick to a wall. On the second day, 10 uM of the drug is added per well. After being incubated for 24 h, the cells are collected, and lysed to extract the cell total protein. The Western Blot method is used to detect the expression levels of Kac-tubilin (localized cytoplasm) in the cells after treating with the different drugs."}, "[3]": {"test_system": "Histone deacetylase (HDAC)", "assay": "HDAC inhibitory activity: Kac-H3 Western Blot in VCaP cells", "assay_type": "cell-based", "details": "10 uM drug, 24 h, FIG. 5", "description": "as §1\nThe VCaP cells are spread in the 6-well plate. 5×10^5 cells are inoculated per well, and incubated overnight to make the cells stick to a wall. Then 10 uM of the drug is added to each well. The cells are collected after being incubated for 24 h. The EpiQuik Total Histone Extraction kit (Epigentek, USA) is used to extract the histones, and the Western Blot method is used to detect expression levels of Kac-H3 (localized cell nucleus) in the cells after adding the different drugs."}, "[4]": {"test_system": "AR-negative cells (293T and DU145)", "assay": "Selective effects of the drug to cells (MTS), AR-negative cells", "assay_type": "cell-based, human", "details": "293T and DU145, 4 days treatment, FIG. 10", "description": "293T cells are AR-negative human embryonic kidney cells, DU145 cells are AR-negative prostate cancer cells, and VCaP cells are AR-positive prostate cancer cells. These three types of the cells are cultured in the 96-well plates and treated with the drugs (in the concentration gradient) respectively for 4 days. Then the inhibition of the drugs on cell proliferation are measure by MTS. Detailed process is as follows:\nThe VCaP cells are cultured with 5% CSS and 1640 medium without phenol red, and inoculated in the 96-well plates, and 1×10^4 cells are added to each well. The 293T cells and the DU145 cells are cultured with 10% FBS and 1640 medium, and inoculated in the 96-well plates, and 2×10^3 cells are added to each well. The cells are incubated overnight to make the cells stick to a wall. Then the different concentrations of the drugs are added on the second day. After treatment with the drugs for 4 days, cell viability is measured by the MTS kit (Promega, USA). To each well, 10% of an MTS reagent is added, and incubation continued for 2 hours. The absorbance value at […] is then measured by the multi-functional microplate reader. The Graphpad Prism software is used to draw a curve by using the drug concentration as an abscissa and using the absorbance value of the drug treatment/the absorbance value of the blank treatment cell as an ordinate."}}, "data": [{"molecule": "N#Cc1ccc(N2C(=O)C3(CCC3)N(c3ccc(C(=O)NO)c(F)c3)C2=S)cc1C(F)(F)F", "note": "[Zeta 55, 4-(7-(4-cyano-3-(trifluoromethyl)phenyl)-8-oxo-6-thio-5,7-diazaspiro[3.4]octane-5-yl)-2-fluoro-N-hydroxybenzamide]", "values": [{"measurement": "antagonist effect on the AR, antagonistic ability from high to low", "setting": "[1]", "value": "Zeta32>Zeta55>Zeta34>Zeta57>Zeta33"}, {"measurement": "acetylation of the tubulin in the cytoplasm (HDAC inhibitory activity)", "setting": "[2]", "value": "superior"}, {"measurement": "H3 acetylation in the nucleus (HDAC inhibitory activity)", "setting": "[3]", "value": "superior"}, {"measurement": "cytotoxicity toward AR-negative cells", "setting": "[4]", "value": "may have low cytotoxicity toward AR-negative cells"}]}]}
